{
  "source": "patent US20260070946A1",
  "about": "“TYR PEPTIDE COMPOSITIONS AND METHODS FOR USE” (UNIVERSITY OF MIAMI, priority 2022, published 2026)",
  "key": {"HT1080 cells [1]": {"tested_on": "HT1080 cells", "assay": "Rapid cell proliferation assay, HT1080, cyclic versus non-cyclic TPA", "format": "cell-based", "details": "40 μg/ml", "description": "Rapid cell proliferation assay was carried out using a Rapid Cell Proliferation Kit, EMD Biosciences (QIA127) (Galoian K, Tumor Biology 32 (4): 745-51, 2011). Cells were seeded at 5×10^4 cells/100 μl culture in the multi-well plate and incubated overnight at 37° C. in 5% CO2 incubator. The actual assay was performed the next day. The rapid cell proliferation assay is based on the activity of mitochondrial enzymes active in viable cells. PRP-1 was added to corresponding wells just after seeding, before overnight incubation. The colorimetric 96-well assay measures colorful product like formazan because of WST-1 tetrazolium salt cleavage by the mitochondrial dehydrogenases. The formazan formation is then quantified by measuring the change in absorbance at 450 nm in a microplate reader. The activity of mitochondrial dehydrogenases is proportional to cell number. No washing, harvesting, or solubilization steps are required. In this series of experiments, PRP-1 was added to corresponding wells immediately after seeding and cell attachment followed by overnight incubation according to the manufacturer's instructions.\nThe cyclic version was created to protect the peptide from being degraded by proteases in vivo. The cyclic peptide was tested for its potency in a rapid cell proliferation assay using HT1080 cells as described above using 40 μg/ml TPA or cyclic TPA in the assay."}, "[2]": {"tested_on": "HT1080 fibrosarcoma cells", "assay": "Survival experiment with HT1080 cells derived from doxorubicin relapsed mice", "format": "in vivo", "description": "Additional survival experiments were undertaken. HT1080 fibrosarcoma cells were used in this experiment that derived from doxorubicin relapsed mice. The cells from tumor were excised as single cell suspension for quick isolation from tissue for subsequent luminescent labeling, then they were cultured in vitro and re-transplanted."}, "T47-D (ER+) cells": {"tested_on": "T47-D (ER+) cells", "details": "cited from earlier work"}, "[3]": {"tested_on": "MDA 231 (ER-) breast cell carcinoma cells", "details": "cited from earlier work"}, "HT1080 cells [4]": {"tested_on": "HT1080 cells", "format": "cell-based, human", "excerpt": "Analysis of anti-proliferative activity in HT1080 cells was examined."}, "HT1080 fibrosarcoma": {"tested_on": "HT1080 fibrosarcoma", "assay": "HT1080 fibrosarcoma nude mice model (IVIS, tumor volume, tumor weight)", "format": "in vivo", "description": "A nude mice model was used in which animals receive orthotopic inoculation of highly metastatic JJ012 chondrosarcoma or HT1080 fibrosarcoma tumor cell lines or primary cell lines labeled with extremely red bright fluorescent protein PTDT-N1.\nDisease progression is evaluated through clinical signs and animal-relevant responses, tumor size analysis, real-time fluorescence and bioluminescence imaging (IVIS) of both in vivo and ex vivo disease-specific tumor microenvironments and lung metastases.\nMonitoring of the solid tumors is as follows (when visible, tumors will be measured by noninvasive imaging or caliper at least weekly). Experimental endpoints depend on the site of transplantation. Mice are euthanized before they reach a tumor volume of 2 cm^3 for a single or multiple tumors. The overriding consideration for humane endpoints of these oncological experiments will be the overall health of the animal. Animals are weighed at least once a week for fast growing tumors (reaching endpoint before 3 months after transplantation) and at least once a month for slow growing tumors. Any tumor-bearing animal are euthanized immediately if the tumor impairs ambulation or eating. […] Animals bearing tumors in such locations are euthanized before the tumors reach the above-stated dimensions.\nTumor-bearing mice are photographed either at the experimental endpoint or using noninvasive imaging technologies to monitor tumor progression. Also contemplated is imaging in vivo for evidence of tumor progression (BLI, IVIS), and observance of clinical signs of metastases (listlessness, weight loss, or hunched posture). Tumors and lungs are harvested to confirm presence of lung metastases and further analyzed: tumors are weighed, photographed, and sectioned into samples designated half for 10% formalin fixation analysis or half for snap-freeze in liquid nitrogen for future analysis."}, "Nanog protein": {"tested_on": "Nanog protein", "assay": "Nanog protein expression in 3D HT1080 cells, western blot", "format": "cell-based", "details": "40 μg/ml"}, "[5]": {"tested_on": "3D fibrosarcoma spheroids", "assay": "Self-renewal assay with 3D fibrosarcoma", "format": "cell-based"}, "fibrosarcoma spheroids": {"tested_on": "fibrosarcoma spheroids", "assay": "Neutral red cytotoxicity assay", "format": "cell-based"}, "[6]": {"tested_on": "cardiomyocyte cell line AC16", "assay": "Cardiotoxicity in cardiomyocyte cell line AC16", "format": "cell-based", "details": "24 hours; TPA 40 μg/mL, Doxo 2 mM", "description": "Cardiotoxicity results of TPA, Doxo and TPA+Doxo combo were analyzed in cardiomyocyte cell line AC16. Cells were treated 24 hours with C (control, DMSO 0.5%), TPA (40 μg/mL), Doxo (Doxorubicin, 2 mM), and TPA (40 μg/mL)+Doxo (2 mM). (FIG. 10). […] Thus, overall survival increases observed in vivo should be attributed to TPA's ability to target and eliminate cancer stem cells."}, "[7]": {"tested_on": "osteosarcoma cell line KHOS", "assay": "Rapid cell proliferation assay, KHOS", "format": "cell-based", "details": "48 h", "description": "(§1) The effects of TPA on three osteosarcoma cell lines OSA, KHOS, MNNG was analyzed (FIG. 11). Rapid cell proliferation was measured by a Rapid Cell Proliferation Kit, EMD Biosciences (QIA127). Cells were seeded at 5×10^4 cells/100 μl culture in a multi-well plate and incubated overnight at 37° C. in 5% CO2 incubator. The actual assay was performed the next day. The rapid cell proliferation assay is based on the activity of mitochondrial enzymes active in viable cells. TPA was added to corresponding wells just after seeding, and before overnight incubation. The 96-well assay measures colorimetric product like formazan because of WST-1 tetrazolium salt cleavage by the mitochondrial dehydrogenases. TPA exerted its effect in all cell lines 48 hours after the incubation. […] (FIG. 11)"}, "ALDHA": {"tested_on": "ALDHA", "assay": "ALDHA mRNA expression in 3D HT1080 lysates", "format": "cell-based", "details": "3D lysates, TPA 20 μg/mL", "excerpt": "(§2) Experiments herein (FIG. 13) indicated there was statistically significant inhibition in 3DHT1080 cell line for EZH2, and its targets, embryonic transcription factor Nanog (Villasante et al., Cell Cycle. 10 (9): 1488-498, 2011), and cancer stem cell marker […], ALDH1A1 (Li et al., Cancer Prev Res (Phila). 25 (3): 484-491 2012). Aldehyde dehydrogenase (ALDH) is an established marker of CSCs in several neoplasms. Cells expressing high levels of ALDH have been isolated in a number of human sarcoma cell lines, including the human chondrosarcoma SW 1353 cell line (Lohberger et al., PLOS One 7)."}, "[8]": {"tested_on": "osteosarcoma cell line MNNG", "assay": "Rapid cell proliferation assay, MNNG", "format": "cell-based", "details": "only the highest dose of 40 μg/ml, 48 hours", "description": "as §1"}, "HOXC13 proteins": {"tested_on": "HOXC13 proteins", "assay": "Inhibition of HOXC13 proteins"}, "[9]": {"details": "mouse, in vivo"}, "[10]": {"tested_on": "chondrosarcoma and fibrosarcoma"}, "Nanog": {"tested_on": "Nanog", "assay": "Nanog mRNA expression in 3D HT1080 lysates", "format": "cell-based", "details": "3D lysates, TPA 20 μg/mL", "excerpt": "as §2"}, "[11]": {"assay": "Acute and cumulative toxicity in mice"}, "EZH2": {"tested_on": "EZH2", "assay": "EZH2 mRNA expression in 3D HT1080 lysates", "format": "cell-based", "details": "3D lysates, TPA 20 μg/mL", "excerpt": "as §2"}},
  "note": "Like-named read-outs stand apart in the source and are kept apart here. Residues, ends and D or L forms follow the SMILES beside them. No end group written: not given here.",
  "data": [
    {"compound": "CC(C)C[C@@H]1NC(=O)[C@H](CCC(=O)O)NC(=O)[C@@H]2CCCN2C(=O)[C@H](CC(=O)O)NC(=O)[C@H](C)NC(=O)[C@@H]2CCCN2C(=O)CNC(=O)[C@H](CCCCN)NC(=O)[C@@H]2CCCN2C(=O)[C@H](CCC(=O)O)NC(=O)[C@@H]2CCCN2C(=O)[C@H]([C@@H](C)O)NC(=O)[C@H](CCC(=O)O)NC(=O)[C@H](CO)NC(=O)[C@H](Cc2ccc(OP(=O)(O)O)cc2)NC1=O", "note": "[cyclic TPA, Cyclo(Ser-Glu-Thr-Pro-Glu-Pro-Lys-Gly-Pro-Ala-Asp-Pro-Glu-Leu-Tyr (PO3H2))] (HELM PEPTIDE1{A.D.P.E.L.[O=C([C@H](Cc1ccc(OP(=O)(O)O)cc1)N[*:1])[*:2]].S.E.T.P.E.P.K.G.P}$PEPTIDE1,PEPTIDE1,1:R1-15:R2$$$V2.0)", "values": [
      {"measurement": "improvement over non-cyclic TPA", "setting": "HT1080 cells [1]", "value": "~1.5", "unit": "fold"},
      {"measurement": "inhibition of cell growth compared to control", "setting": "HT1080 cells [1]", "value": "over 50%"}
    ]},
    {"compound": "COc1cccc2c1C(=O)c1c(O)c3c(c(O)c1C2=O)C[C@@](O)(C(=O)CO)C[C@@H]3O[C@H]1C[C@H](N)[C@H](O)[C@H](C)O1", "note": "[doxorubicin]", "values": [
      {"measurement": "median survival", "setting": "[2]; 10 mice per group, control (PBS) 21 days", "value": 28, "unit": "days"},
      {"measurement": "overall Median Survival advantage", "setting": "[2]; mice re-transplanted with cells from doxorubicin relapsed tumors", "value": 33, "unit": "%"}
    ]},
    {"compound": "AGAPEPAEPAQPGVY [PRP-1]", "values": [
      {"measurement": "inhibitory effect on cell growth", "setting": "T47-D (ER+) cells", "value": "no inhibitory effect"},
      {"measurement": "inhibition of cell growth", "setting": "[3]; 0.5 μg/ml PRP-1", "value": 71, "unit": "%"},
      {"measurement": "inhibition of cell growth", "setting": "[3]; 1 μg/ml PRP-1", "value": 63, "unit": "%"},
      {"measurement": "inhibition of cell growth", "setting": "[3]; 10 μg/ml", "value": 44, "unit": "%"}
    ]},
    {"compound": "SETPEPKGPADPELY [TPA 1, SETPEPKGPADPELY]", "values": [
      {"measurement": "IC50, anti-proliferative activity", "setting": "HT1080 cells [4]", "value": 21, "unit": "µg/mL"},
      {"measurement": "concentration of maximum effect", "setting": "HT1080 cells [4]; HT1080 human fibrosarcoma, dose response", "value": 40, "unit": "µg/mL"},
      {"measurement": "effect on cancer stem cell spheroids", "setting": "HT1080 cells [4]; visual, maximum effect with 40 μg/ml", "value": "destruction of cancer stem cell spheroids in dose response manner"}
    ]},
    {"compound": "SETPEPKGPADPELY [TPA, SETPEPKGPADPELY]", "values": [
      {"measurement": "tumor volume versus Control", "setting": "HT1080 fibrosarcoma; by day 18", "value": "trend toward decreased tumor volume"},
      {"measurement": "tumor weights at necropsy versus Control", "setting": "HT1080 fibrosarcoma; day after Day 14", "value": "no difference in tumor weights"},
      {"measurement": "IVIS tumor growth compared to Control", "setting": "HT1080 fibrosarcoma; through Day 14, IVIS % Growth p<0.001", "value": "decreased growth"},
      {"measurement": "inhibition of Nanog protein in comparison with control", "setting": "Nanog protein", "value": 47, "unit": "%"},
      {"measurement": "effect on spheroids in comparison to not treated control", "setting": "[5]; 20 μg/ml", "value": "destruction and shrinkage of the spheroid"},
      {"measurement": "viability of the shrunken spheroids by viability assay", "setting": "[5]; 20 μg/ml", "value": "non viable"},
      {"measurement": "spheroid formation", "setting": "[5]; 40 μg/ml", "value": "completely prevented spheroid formation"},
      {"measurement": "cytotoxic effect relative to doxorubicin (DO)", "setting": "fibrosarcoma spheroids; 40 μg/ml", "value": "almost that in cytotoxic doxorubicin"},
      {"measurement": "viability of fibrosarcoma spheroids", "setting": "fibrosarcoma spheroids; increased concentration of TPA peptide", "value": "dose response decrease in viability"},
      {"measurement": "cytotoxicity in cardiomyocytes", "setting": "[6]", "value": "did not show any toxicity"},
      {"measurement": "growth inhibition", "setting": "[7]", "value": 40, "unit": "%"},
      {"measurement": "ALDHA mRNA fold decrease versus control", "setting": "ALDHA", "value": 3.22, "unit": "fold"},
      {"measurement": "reduced expression of ALDHA", "setting": "ALDHA; normalized to GAPDH mRNA", "value": 69, "unit": "%"},
      {"measurement": "growth inhibition", "setting": "[8]", "value": "inhibited growth"},
      {"measurement": "inhibition of HOXC13 proteins", "setting": "HOXC13 proteins", "value": "inhibits in a statistically significant manner"},
      {"measurement": "blood count and chemistry", "setting": "[9]", "value": "no change in blood count and chemistry"},
      {"measurement": "inhibition of chondrosarcoma and fibrosarcoma growth", "setting": "[10]", "value": "80-90%"},
      {"measurement": "Nanog mRNA fold decrease versus control", "setting": "Nanog", "value": 7.69, "unit": "fold"},
      {"measurement": "reduced expression of Nanog", "setting": "Nanog; normalized to GAPDH mRNA", "value": 87, "unit": "%"},
      {"measurement": "cumulative toxicity", "setting": "[11]; following 14 days of TPA treatment", "value": "no cumulative toxicity"},
      {"measurement": "acute toxicity (change in weight or behavior)", "setting": "[11]; up to 100 mg/kg", "value": "No acute toxicity"},
      {"measurement": "EZH2 mRNA fold decrease versus control", "setting": "EZH2", "value": 5, "unit": "fold"},
      {"measurement": "reduced expression of EZH2", "setting": "EZH2; normalized to GAPDH mRNA", "value": 80, "unit": "%"}
    ]}
  ]
}
